Experimental data as given in patent US20250006331A1, “QUANTITATIVE SYSTEMS PHARMACOLOGY METHODS FOR IDENTIFYING THERAPEUTICS FOR DISEASE STATES” (UNIVERSITY OF PITTSBURGH-OF THE COMMONWEALTH SYSTEM OF …, priority 2021, published 2025).
Entries after “also recorded” stand apart in the source; their conditions may differ.

Key:
[1] = test system: TNF-α, IL-6, IL-8, IL-1α and MCP-1; assay: LAMPS production of pro-inflammatory cytokines; format: cell-based, human; settings: for Inflammatory cytokine production: LAMPS
Source text: (§1) LAMPS model assembly and maintenance. […] The experimental setup workflow is described in the Supplement.

[2] = test system: Pro-collagen 1A1 and TIMP-1; assay: LAMPS secretion of pro-fibrotic markers (ELISA); format: cell-based, human; settings: for Effect on secreted pro-fibrotic markers / fibrosis: LAMPS NAFLD/MAFLD model, summary statement; for Decrease in secretion of the pro-fibrotic marker Pro-collagen 1a1: 30 μM PGZ vs vehicle, decrease not statistically significant; for Decrease in secretion of the pro-fibrotic marker Pro-Col 1a1: 10 μM TGZ vs vehicle, decrease is not significant
Source text: as §1

LAMPS models [3] = assay: LAMPS cytotoxicity (lactate dehydrogenase secretion); settings: for Lactate dehydrogenase curves: 10-day time course, vs vehicle control, 10 μM OCA, 30 μM PGZ, 10 μM TGZ
Method: LAMPS model assembly and maintenance. LAMPS studies were carried out as previously described (Vernetti, Senutovitch et al. 2016, Lee-Montiel, George et al. 2017, Miedel, Gavlock et al. 2019, Mohammed 2021) with modification to include the use of human primary liver sinusoidal endothelial cells (LSECs). A single chamber commercial microfluidic device (HAR-V single channel device, SCC-001, Nortis, Inc. Seattle, WA) was used for LAMPS studies. For all steps involving injection of media and/or cell suspensions into LAMPS devices, 100-150 μl per device was used to ensure complete filling of fluidic pathways, chamber and bubble traps. The percentages of hepatocytes, THP-1, LSEC, and LX-2 cells are consistent with the scaling used in our previously published models (Vernetti, Senutovitch et al. 2016, Lee-Montiel, George et al. 2017, Miedel, Gavlock et al. 2019, Mohammed 2021). For the studies described here, LAMPS models were set up and maintained for 10 days under flow.
Secretome measurements. Efflux media from LAMPS devices was collected on days 2,4,6,8, and 10 to measure albumin, blood urea nitrogen, and lactate dehydrogenase. […] The CytoTox 96 for lactate dehydrogenase (LDH) and the urea nitrogen test were purchased from Promega (Madison, WI) and Stanbio Laboratory (Boerne, TX), respectively. […] All efflux measurements were carried out according to the manufacturer's protocol and obtained as described previously (Vernetti, Senutovitch et al. 2016, Lee-Montiel, George et al. 2017, Li, George et al. 2018, Miedel, Gavlock et al. 2019).
LAMPS models were maintained for 10 days in MAFLD disease media containing either the indicated concentration of drug or DMSO vehicle control. We determined drug concentrations to test in LAMPS models guided by the CMap database and by cytotoxicity testing in primary hepatocytes (Table S8). […] We examined a panel of metrics to monitor disease-specific phenotypes including model functionality (albumin and blood urea nitrogen production) and cytotoxicity (lactate dehydrogenase secretion), hepatocellular steatosis (LipidTOX Lipid Stain from ThermoFisher Scientific labeling), stellate cell activation (α-smooth muscle actin staining), and the production of a panel of pro-inflammatory cytokines and fibrotic markers (Pro-collagen 1A1 and TIMP-1) (Mohammed et. al, 2021).

LAMPS models [4] = assay: LAMPS hepatocellular steatosis (LipidTOX labeling); format: cell-based, human; settings: for Effect on steatosis: LAMPS NAFLD/MAFLD model, summary statement; for Hepatocellular steatosis / lipid accumulation (LipidTOX intensity): NAFLD disease media, day 10, vs vehicle control, 10 μM TGZ, Vorinostat 1.7 or 5 μM, AS601245 1 or 3 μM, pioglitazone + vorinostat combination
Method: as §1
Steatosis measurements. Steatosis measurements were performed using HCS LipidTOX Deep Red Neutral Lipid Stain (ThermoFisher) after completion of the experimental time course (Day 10) in LAMPS models as previously described (Lee-Montiel, George et al. 2017) and are outlined in detail in the Supplemental Methods section.

[5] = test system: LX-2 human stellate cells; assay: LAMPS stellate cell activation (α-smooth muscle actin staining); format: cell-based; settings: for Effect on stellate cell activation: LAMPS NAFLD/MAFLD model, summary statement; for Stellate cell activation (α-SMA intensity): LAMPS, 10 μM OCA, 30 μM PGZ
Source text: (§2) LAMPS cell sources and cell culture. A single lot of selected cryopreserved primary human hepatocytes (lot #Hu1960) with >90% viability and re-plating efficiency post-thaw were purchased from ThermoFisher. A single lot of selected cryopreserved primary human liver sinusoidal endothelial cells (LSEC; lot #: HL160019) were purchased from LifeNet Health (formerly Samsara Sciences; Virginia Beach, VA.). The human monoblast cell line, THP-1, used to generate Kupffer cells, was purchased from ATCC (Rockville, MD). LX-2 human stellate cells were acquired from Sigma Millipore (Billerica, MA). The LX-2 cell is an immortalized human hepatic stellate cell that constitutively expresses key receptors regulating hepatic fibrosis, and proliferates in response to PDGF, a prominent mitogen contributing to liver fibrosis (Bonner 2004, Xu, Hui et al. 2005).
as §1
Stellate cell activation. Staining for LX-2 cell expression of α-smooth muscle actin (α-SMA) was performed after completion of the experimental time course (Day 10) in LAMPS models as previously described (Vernetti, Senutovitch et al. 2016, Li, George et al. 2018) and are outlined in detail in the Supplemental Methods section.

LAMPS models [6] = assay: LAMPS model functionality (albumin and blood urea nitrogen secretion); format: cell-based, human; settings: 10-day time course, vs vehicle control, 10 μM OCA, 30 μM PGZ; for Albumin curves / Blood urea nitrogen curves: NAFLD disease media, 10 μM TGZ, Vorinostat 1.7 or 5 μM, AS601245 1 or 3 μM, pioglitazone + vorinostat combination
Source text: as §2
Primary human hepatocytes were thawed following the manufacturer's recommendations using Cryopreserved Hepatocyte Recovery Medium (CHRM; ThermoFisher) and were initially cultured in hepatocyte plating media (HPM) containing Williams E medium (11.5 mM glucose) supplemented with 5% fetal bovine serum, […] penicillin-streptomycin and 2 mM L-glutamine. For perfusion in LAMPS models, cells were maintained in normal fasting (NF), early metabolic syndrome (EMS), or late metabolic syndrome (LMS) media. The description of components of these media types is detailed in the Metabolic Syndrome Media section below. LSECs were thawed and expanded in endothelial cell basal medium-2 (EBM-2) supplemented with the endothelial growth medium-2 (EGM-2) supplement pack (Lonza; Alpharetta, GA; #CC-4176). THP-1 cells were cultured in suspension in RPMI-1640 medium (ThermoFisher) supplemented with 10% fetal bovine serum (FBS; ThermoFisher), 100 μg/mL penicillin streptomycin (ThermoFisher), and 2 mM L-glutamine (ThermoFisher). THP-1 cells were differentiated into mature macrophages by treatment with 200 ng/mL phorbol myristate acetate (Sigma Aldrich) for 48 h. Differentiated THP-1 monocytes release human tumor necrosis factor alpha (TNF-α) and interleukin-6 (IL-6) in response to LPS treatment, a condition reported to induce the immune mediated liver toxic response in in vitro models (Jang, Choi et al. 2006, Kostadinova, Boess et al. 2013). LX-2 cells were cultured in Dulbecco's Modified Eagle Medium (DMEM; ThermoFisher) supplemented with 2% FBS and 100 μg/mL penicillin streptomycin.
Metabolic syndrome media. We developed medias that were designed to create disease progression from Normal Fasting (NF) to early metabolic syndrome (EMS or NAFLD) and late metabolic syndrome (LMS or T2D) over a two-week period in the LAMPS platform (Mohammed 2021). For the studies described here, we used both NF and EMS media formulations. […] We then adjusted these components to reflect the pathophysiological conditions as described below (Alford, Bloodm et al. 1977, Kuhl 1977, Kim, Kim et al. 2000, Chitturi, Abeygunasekera et al. 2002, de Almeida, Cortez-Pinto et al. 2002, Valencia, Marin et al. 2002, Edgerton, Ramnanan et al. 2009, Winnick, An et al. 2009).
Early Metabolic Syndrome (EMS) Media: Early metabolic syndrome (EMS) medium was derived from the NF media formulation with the following modifications: 11.5 mM glucose, 10 nM insulin, […] glucagon, 200 μM sodium oleate and 100 μM palmitic acid (Sigma).
as §1

[7] = observational trial of adult males [Vega, G. L., et al. 2008]; cited from earlier work
[8] = EMS media, day 10, vs vehicle, vorinostat 1.7 or 5 μM, pioglitazone 30 μM + vorinostat 1.7 or 5 μM
[9] = NAFLD disease media, day 10, vs vehicle control, Vorinostat 1.7 or 5 μM, AS601245 1 or 3 μM, pioglitazone + vorinostat combination
[10] = LAMPS, EMS media, 10 days, vs vehicle, 10 μM OCA, 30 μM PGZ, vorinostat 1.7 or 5 μM, pioglitazone 30 μM + vorinostat 1.7 or 5 μM
[11] = LAMPS, NAFLD disease media, 10 days, vs vehicle, 10 μM OCA, 30 μM PGZ, 10 μM TGZ, Vorinostat 1.7 or 5 μM, pioglitazone + vorinostat combination
[12] = NAFLD disease media, day 10, vs vehicle control, 10 μM TGZ, Vorinostat 1.7 or 5 μM, pioglitazone + vorinostat combination
[13] = EMS media, vorinostat 1.7 or 5 μM, pioglitazone 30 μM + vorinostat 1.7 or 5 μM
[14] = LAMPS, EMS media, 10 days, 10 μM OCA
[15] = LAMPS, NAFLD disease media, 10 days, 10 μM OCA, 30 μM PGZ

Compound	Inflammatory cytokine production [1, 9]	Effect on secreted pro-fibrotic markers / fibrosis [2]	Secreted levels / production of TIMP-1 [2, 11]	Effect on steatosis (LAMPS models [4])	Hepatocellular steatosis / lipid accumulation (LipidTOX intensity) (LAMPS models [4]; LAMPS, 10 μM OCA, 30 μM PGZ)	Effect on stellate cell activation [5]	Stellate cell activation (α-SMA intensity) [5, 12]	Albumin curves (LAMPS models [6])	Blood urea nitrogen curves (LAMPS models [6])	Decrease in secretion of the pro-fibrotic marker Pro-collagen 1a1 [2, 14] [%]	Decrease in secretion of the pro-fibrotic marker Pro-Col 1a1 [2, 15] [%]	Lactate dehydrogenase curves (LAMPS models [3]; NAFLD disease media)	other results
O=C(CCCCCCC(=O)Nc1ccccc1)NO [Vorinostat, suberoylanilide hydroxamic acid]	significant decrease	robustly mitigated; also recorded: robustly reduced; also recorded: significant inhibition	significant decrease	without an impact; also recorded: without significant amelioration; also recorded: without an appreciable effect	no effect	robustly reduced	significant decrease	no significant differences	no significant differences	–	–	–	Effect on inflammatory markers / inflammation ([1]; LAMPS NAFLD/MAFLD model, summary statement): robustly mitigated; also recorded: robustly reduced; also recorded: significant inhibition; Inflammatory cytokine production [1, 8]: significant decrease; Secreted levels / production of TIMP-1 [2, 10]: significant decrease; Secreted levels / production of the pro-fibrotic marker Pro-Col 1a1 [2, 10]: significant decrease; Production of the pro-fibrotic marker pro-collagen 1a1 ([2]; LAMPS, NAFLD disease media, day 10, vs vehicle control, Vorinostat 1.7 or 5 μM, pioglitazone + vorinostat combination): significant decrease; LDH secretion (LAMPS models [3]; EMS media, days 8 and 10, 5 μM vorinostat vs vehicle control): significant decrease; LDH secretion (LAMPS models [3]; NAFLD disease media, days 8 and 10, 5 μM Vorinostat vs vehicle control): significant decrease; Steatosis / lipid accumulation (LipidTOX intensity) (LAMPS models [4]; LAMPS, EMS media, day 10, vs vehicle, 10 μM OCA, 30 μM PGZ, vorinostat 1.7 or 5 μM, pioglitazone 30 μM + vorinostat 1.7 or 5 μM): no significant effect; Stellate cell activation (α-SMA intensity) [5, 8]: significant decrease; Albumin secretion profiles (LAMPS models [6]; [13]): no significant differences; Blood urea nitrogen secretion profiles (LAMPS models [6]; [13]): no significant differences
N#CC(c1ccnc(NCCc2cccnc2)n1)c1nc2ccccc2s1 (stereo not shown) [AS601245]	dose-dependent increase	–	–	–	no effect	–	–	no significant differences	no significant differences	–	–	–	–
C[C@]12COC(=O)C[C@@H]1CC[C@@H]1[C@@H]2CC[C@@]2(C)[C@H]1CC[C@]2(C)O [oxandrolone]	–	–	–	–	–	–	–	–	–	–	–	–	Hepatic ketogenesis [7]: promoted hepatic ketogenesis
CC[C@H]1[C@@H](O)[C@@H]2[C@H](CC[C@]3(C)[C@@H]([C@H](C)CCC(=O)O)CC[C@@H]23)[C@@]2(C)CC[C@@H](O)C[C@@H]12 [OCA, obeticholic acid]	–	no significant effect	–	–	–	–	–	–	–	~20	~20	no significant differences	–
CCc1ccc(CCOc2ccc(CC3SC(=O)NC3=O)cc2)nc1 (stereo not shown) [PGZ, pioglitazone]	–	no significant effect	–	–	–	–	–	–	–	~20	~20	no significant differences	–
Cc1c(C)c2c(c(C)c1O)CCC(C)(COc1ccc(CC3SC(=O)NC3=O)cc1)O2 (stereo not shown) [TGZ, troglitazone]	–	reduced steatosis but not fibrosis markers; also recorded: no significant effect	no significant change	reduced	significant decrease	reduced	significant decrease	no significant differences	no significant differences	–	~20	no significant differences	–
